From patent publication US9822114B2, “Tricyclic oxazolidinone antibiotic compounds” (Idorsia Pharmaceuticals Ltd, priority 2008, dated 2017)
≈ marks a conversion by molar mass, not a printed value.

test system: M. catarrhalis A894; experiment: Minimal inhibitory concentration (MIC), microdilution method in cation-adjusted Mueller-Hinton Broth (CLSI M7-A7); format: cell-based; conditions: Moraxella catarrhalis, strain A894
Method: Minimal inhibitory concentrations (MICs; mg/1) were determined in cation-adjusted Mueller-Hinton Broth by a microdilution method following the description given in “Methods for Dilution Antimicrobial Susceptibility Tests for Bacteria that Grow Aerobically”, Approved standard, 7th ed., Clinical and Laboratory Standards Institute (CLSI) Document M7-A7, Wayne, Pa., USA, 2006.

| SMILES | MIC |
| --- | --- |
| CN(C)Cc1ccc2c3c1ccc(=O)n3C[C@@H]2NCCC[C@H]1CN(c2ccc3c(c2)NC(=O)CS3)C(=O)O1 [Example 122, (R)-7-dimethylaminomethyl-1-{3-[(S)-2-oxo-3-(3-oxo-3,4-dihydro-2H-benzo[1,4]thiazin-6-yl)-oxazolidin-5-yl]-propylamino}-1,2-dihydro-pyrrolo[3,2,1-ij]quinolin-4-one] | 0.5 µg/mL (≈ 0.937 µM) |
| O=C1CSc2ccc(N3C[C@@H](CCCN[C@H]4Cn5c(=O)ccc6ccc(F)c4c65)OC3=O)cc2N1 [Example 127, (R)-9-fluoro-1-{3-[(R)-2-oxo-3-(3-oxo-3,4-dihydro-2H-benzo[1,4]thiazin-6-yl)-oxazolidin-5-yl]-propylamino}-1,2-dihydro-pyrrolo[3,2,1-ij]quinolin-4-one] | ≤ 0.031 µg/mL |
| O=C1CSc2ccc(N3C[C@@H](CCCN[C@@H]4Cn5c(=O)ccc6ccc(F)c4c65)OC3=O)cc2N1 [Example 128, (S)-9-fluoro-1-{3-[(R)-2-oxo-3-(3-oxo-3,4-dihydro-2H-benzo[1,4]thiazin-6-yl)-oxazolidin-5-yl]-propylamino}-1,2-dihydro-pyrrolo[3,2,1-ij]quinolin-4-one] | ≤ 0.031 µg/mL |
| O=C1CSc2ccc(N3C[C@H](CCCN[C@H]4Cn5c(=O)ccc6ccc(F)c4c65)OC3=O)cc2N1 [Example 129, (R)-9-fluoro-1-{3-[(S)-2-oxo-3-(3-oxo-3,4-dihydro-2H-benzo[1,4]thiazin-6-yl)-oxazolidin-5-yl]-propylamino}-1,2-dihydro-pyrrolo[3,2,1-ij]quinolin-4-one] | ≤ 0.031 µg/mL |
| O=C1CSc2ccc(N3C[C@H](CCCN[C@H]4Cn5c(=O)ccc6cccc4c65)OC3=O)cc2N1 [Example 133, (R)-1-{3-[(S)-2-oxo-3-(3-oxo-3,4-dihydro-2H-benzo[1,4]thiazin-6-yl)-oxazolidin-5-yl]-propylamino}-1,2-dihydro-pyrrolo[3,2,1-ij]quinolin-4-one] | ≤ 0.031 µg/mL |
| O=C1COc2ccc(N3C[C@H](CCCN[C@H]4Cn5c(=O)ccc6cccc4c65)OC3=O)cc2N1 [Example 134, (R)-1-{3-[(S)-2-oxo-3-(3-oxo-3,4-dihydro-2H-benzo[1,4]oxazin-6-yl)-oxazolidin-5-yl]-propylamino}-1,2-dihydro-pyrrolo[3,2,1-ij]quinolin-4-one] | ≤ 0.031 µg/mL |

Other lines, results leading:

| MIC | SMILES |
| --- | --- |
| 0.125 µg/mL (≈ 0.223 µM) | O=C1CSc2ccc(N3C[C@H](CCCN[C@H]4Cn5c(=O)ccc6c(CN7CCCC7)ccc4c65)OC3=O)cc2N1 [Example 123, (R)-1-{3-[(S)-2-oxo-3-(3-oxo-3,4-dihydro-2H-benzo[1,4]thiazin-6-yl)-oxazolidin-5-yl]-propylamino}-7-pyrrolidin-1-ylmethyl-1,2-dihydro-pyrrolo[3,2,1-ij]quinolin-4-one] |
| ≤ 0.031 µg/mL | O=C1CSc2ccc(N3C[C@H](CCCN[C@@H]4Cn5c(=O)ccc6ccc(F)c4c65)OC3=O)cc2N1 [Example 130, (S)-9-fluoro-1-{3-[(S)-2-oxo-3-(3-oxo-3,4-dihydro-2H-benzo[1,4]thiazin-6-yl)-oxazolidin-5-yl]-propylamino}-1,2-dihydro-pyrrolo[3,2,1-ij]quinolin-4-one] |
| ≤ 0.031 µg/mL | O=C1COc2ccc(N3C[C@H](CCCN[C@H]4Cn5c(=O)cnc6ccc(F)c4c65)OC3=O)nc2N1 [Example 131, (R)-7-fluoro-6-{3-[(S)-2-oxo-3-(3-oxo-3,4-dihydro-2H-pyrido[3,2-b][1,4]oxazin-6-yl)-oxazolidin-5-yl]-propylamino}-5,6-dihydro-pyrrolo[1,2,3-de]quinoxalin-3-one] |
| ≤ 0.031 µg/mL | O=C1CSc2ccc(N3C[C@@H](CCCN[C@H]4Cn5c(=O)cnc6ccc(F)c4c65)OC3=O)nc2N1 [Example 132, (R)-7-fluoro-6-{3-[(R)-2-oxo-3-(3-oxo-3,4-dihydro-2H-pyrido[3,2-b][1,4]thiazin-6-yl)-oxazolidin-5-yl]-propylamino}-5,6-dihydro-pyrrolo[1,2,3-de]quinoxalin-3-one] |
